These results are taken from patent US20260022142A1, “MACROCYCLIC IMMUNOMODULATORS” (Bristol-Myers Squibb Company, priority 2022, published 2026).

Bridge positions count the residues as written; N and C are the ends. Square brackets hold non-standard residues; d marks the D form. Peptide text beside a SMILES is read from it. * marks the point of attachment. Phe(3-CF3) = N[C@@H](Cc1cccc(C(F)(F)F)c1)C(=O)O; Phe(4-COOH) = N[C@@H](Cc1ccc(C(=O)O)cc1)C(=O)O; Bip = N[C@@H](Cc1ccc(-c2ccccc2)cc1)C(=O)O; NH(CH2)14COOH = O=C(O)CCCCCCCCCCCCCCN*; Phe(3-Me) = Cc1cccc(C[C@H](N)C(=O)O)c1; NH(CH2)12COOH = O=C(O)CCCCCCCCCCCCN*; Val(3-OH) = CC(C)(O)[C@H](N)C(=O)O; Cha = N[C@@H](CC1CCCCC1)C(=O)O; dDab = NCC[C@@H](N)C(=O)O; Carboxymethyl = O=C(O)C*; Nle = CCCC[C@H](N)C(=O)O; Orn = NCCC[C@H](N)C(=O)O; Dab = NCC[C@H](N)C(=O)O; AEEA = NCCOCCOCC(=O)O

For this test, the target named is T1, PD-1/PD-L1 interaction (PE-labeled human PD-L1-Ig binding to Jurkat cell line over-expressing human PD-1) (Homo sapiens, UniProt Q15116).
T1 construct: expressed in transfected cells; host or cells: Jurkat
T1 sequence (Q15116 25-288): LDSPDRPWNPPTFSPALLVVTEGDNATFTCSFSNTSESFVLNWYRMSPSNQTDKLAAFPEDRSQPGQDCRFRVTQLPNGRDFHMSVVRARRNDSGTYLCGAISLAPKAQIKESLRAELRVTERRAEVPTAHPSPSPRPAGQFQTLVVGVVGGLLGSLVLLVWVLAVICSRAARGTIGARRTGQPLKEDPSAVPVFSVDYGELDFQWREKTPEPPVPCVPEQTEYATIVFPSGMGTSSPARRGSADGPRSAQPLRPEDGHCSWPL
The test is described as follows: Jurkat-PD-1 Cell Binding High-Content Screening Assay (CBA). In kind it is cell-based. Particulars: Jurkat cell line over-expressing human PD-1; PE-labeled PD-L1-Ig 20 nM final; read-out: Jurkat hPD1-PDL1 IC50. The method, boiled down:
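Jurkat cells stably over-expressing human PD-1 were seeded in DMEM with 10% fetal calf serum and pre-incubated with compound for 2 h at 37° C. PE-labeled human PD-L1-Ig was then added at 20 nM final for 1 hour, after which cells were fixed with paraformaldehyde, Hoechst-stained and imaged by high-content microscopy.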
Regarding `CCCC[C@@H]1NC(=O)CSC[C@@H](C(=O)N[C@@H](CCN)C(=O)NCCOCCOCC(=O)NCCOCCOCC(=O)NCCCCCCCCCCCCC(=O)O)NC(=O)[C@H](CO)NC(=O)[C@H](C(C)(C)O)NC(=O)[C@H](CC2CCCCC2)NC(=O)[C@H](CCN)NC(=O)[C@@H](CC(C)C)NC(=O)[C@H](CCCN)NC(=O)[C@H](Cc2ccc(OCC(=O)O)cc2)NC(=O)[C@H](Cc2ccc(-c3ccccc3)cc2)NC(=O)[C@H](Cc2ccc(OCC(=O)O)cc2)NC(=O)[C@H](Cc2cccc(C(F)(F)F)c2)NC(=O)[C@H](CC(=O)O)NC(=O)[C@H](Cc2ccc(OCC(=O)O)cc2)NC1=O` [Compound 3829] ({CH2CO}-[Nle]Y(Carboxymethyl)D[Phe(3-CF3)]Y(Carboxymethyl)[Bip]Y(Carboxymethyl)[Orn][dL][Dab][Cha][Val(3-OH)]SC[Dab][AEEA][AEEA]-{NH(CH2)12COOH}; thioether N-14), the IC50 stood at 19.2 nM.

`CC(C)C[C@H]1NC(=O)[C@H](CCCN)NC(=O)[C@H](Cc2ccc(C(=O)O)cc2)NC(=O)[C@H](Cc2ccc(-c3ccccc3)cc2)NC(=O)[C@H](Cc2ccc(C(=O)O)cc2)NC(=O)[C@H](Cc2cccc(C(F)(F)F)c2)NC(=O)[C@H](CC(=O)O)NC(=O)[C@H](Cc2ccc(OCC(=O)O)cc2)NC(=O)[C@H](CC2CCCCC2)NC(=O)CSC[C@@H](C(=O)N[C@@H](CCN)C(=O)NCCOCCOCC(=O)NCCOCCOCC(=O)NCCCCCCCCCCCCCCC(=O)O)NC(=O)[C@H](CO)NC(=O)[C@H](C(C)(C)O)NC(=O)[C@H](CC2CCCCC2)NC(=O)[C@H](CCN)NC1=O` [Compound 3830] ({CH2CO}-[Cha]Y(Carboxymethyl)D[Phe(3-CF3)][Phe(4-COOH)][Bip][Phe(4-COOH)][Orn][dL][Dab][Cha][Val(3-OH)]SC[Dab][AEEA][AEEA]-{NH(CH2)14COOH}; thioether N-14): the IC50 was determined as 200 nM.

For `CC(C)C[C@H]1NC(=O)[C@H](CCCN)NC(=O)[C@H](Cc2ccc(C(=O)O)cc2)NC(=O)[C@H](Cc2ccc(-c3ccccc3)cc2)NC(=O)[C@H](Cc2ccc(C(=O)O)cc2)NC(=O)[C@H](Cc2cccc(C(F)(F)F)c2)NC(=O)[C@H](CC(=O)O)NC(=O)[C@H](Cc2ccc(OCC(=O)O)cc2)NC(=O)[C@H](CC2CCCCC2)NC(=O)CSC[C@@H](C(=O)N[C@H](CCN)C(=O)NCCOCCOCC(=O)NCCOCCOCC(=O)NCCCCCCCCCCCCC(=O)O)NC(=O)[C@H](CO)NC(=O)[C@H](C(C)(C)O)NC(=O)[C@H](CC2CCCCC2)NC(=O)[C@H](CCN)NC1=O` [Compound 3831] ({CH2CO}-[Cha]Y(Carboxymethyl)D[Phe(3-CF3)][Phe(4-COOH)][Bip][Phe(4-COOH)][Orn][dL][Dab][Cha][Val(3-OH)]SC[dDab][AEEA][AEEA]-{NH(CH2)12COOH}; thioether N-14), the IC50 stood at 22.5 nM.

With `CC(C)C[C@@H]1NC(=O)CSC[C@@H](C(=O)N[C@@H](CCN)C(=O)NCCCCCCCCCCCCC(=O)O)NC(=O)[C@H](CO)NC(=O)[C@H](C(C)(C)O)NC(=O)[C@H](CC2CCCCC2)NC(=O)[C@H](CCN)NC(=O)[C@@H](CC(C)C)NC(=O)[C@H](CCCN)NC(=O)[C@H](Cc2ccc(OCC(=O)O)cc2)NC(=O)[C@H](Cc2ccc(-c3ccccc3)cc2)NC(=O)[C@H](Cc2ccc(OCC(=O)O)cc2)NC(=O)[C@H](Cc2cccc(C(F)(F)F)c2)NC(=O)[C@H](CC(=O)O)NC(=O)[C@H](Cc2ccc(OCC(=O)O)cc2)NC1=O` [Compound 3835] ({CH2CO}-LY(Carboxymethyl)D[Phe(3-CF3)]Y(Carboxymethyl)[Bip]Y(Carboxymethyl)[Orn][dL][Dab][Cha][Val(3-OH)]SC[Dab]-{NH(CH2)12COOH}; thioether N-14), the IC50 stood at 28.3 nM.

Turning to `CC(C)C[C@H]1NC(=O)[C@H](CCCN)NC(=O)[C@H](Cc2ccc(OCC(=O)O)cc2)NC(=O)[C@H](Cc2ccc(-c3ccccc3)cc2)NC(=O)[C@H](Cc2ccc(OCC(=O)O)cc2)NC(=O)[C@H](Cc2cccc(C(F)(F)F)c2)NC(=O)[C@H](CC(=O)O)NC(=O)[C@H](Cc2ccc(OCC(=O)O)cc2)NC(=O)[C@H](Cc2cnc[nH]2)NC(=O)CSC[C@@H](C(=O)N[C@@H](CCN)C(=O)NCCCCCCCCCCCCC(=O)O)NC(=O)[C@H](CO)NC(=O)[C@H](C(C)(C)O)NC(=O)[C@H](CC2CCCCC2)NC(=O)[C@H](CCN)NC1=O` [Compound 3836] ({CH2CO}-HY(Carboxymethyl)D[Phe(3-CF3)]Y(Carboxymethyl)[Bip]Y(Carboxymethyl)[Orn][dL][Dab][Cha][Val(3-OH)]SC[Dab]-{NH(CH2)12COOH}; thioether N-14), the half-inhibitory concentration (IC50) is 45.6 nM.

Take `CC(C)C[C@H]1NC(=O)[C@H](CCCN)NC(=O)[C@H](Cc2ccc(C(=O)O)cc2)NC(=O)[C@H](Cc2ccc(-c3ccccc3)cc2)NC(=O)[C@H](Cc2ccc(C(=O)O)cc2)NC(=O)[C@H](Cc2cccc(C(F)(F)F)c2)NC(=O)[C@H](CC(=O)O)NC(=O)[C@H](Cc2ccc(OCC(=O)O)cc2)NC(=O)[C@H](Cc2ccc(OCC(=O)O)cc2)NC(=O)CSC[C@@H](C(=O)N[C@@H](CCN)C(=O)NCCOCCOCC(=O)NCCOCCOCC(=O)NCCCCCCCCCCCCCCC(=O)O)NC(=O)[C@H](CO)NC(=O)[C@H](C(C)(C)O)NC(=O)[C@H](CC2CCCCC2)NC(=O)[C@H](CCN)NC1=O` [Compound 3839] ({CH2CO}-Y(Carboxymethyl)Y(Carboxymethyl)D[Phe(3-CF3)][Phe(4-COOH)][Bip][Phe(4-COOH)][Orn][dL][Dab][Cha][Val(3-OH)]SC[Dab][AEEA][AEEA]-{NH(CH2)14COOH}; thioether N-14): the half-maximal inhibitory concentration (IC50) turned out to be 178 nM.

In the case of `CC(C)C[C@H]1NC(=O)[C@H](Cc2cnc[nH]2)NC(=O)[C@H](Cc2ccc(C(=O)O)cc2)NC(=O)[C@H](Cc2ccc(-c3ccccc3)cc2)NC(=O)[C@H](Cc2ccc(C(=O)O)cc2)NC(=O)[C@H](Cc2cccc(C(F)(F)F)c2)NC(=O)[C@H](CC(=O)O)NC(=O)[C@H](Cc2ccc(OCC(=O)O)cc2)NC(=O)[C@H](Cc2ccc(OCC(=O)O)cc2)NC(=O)CSC[C@@H](C(=O)N[C@@H](CCN)C(=O)NCCOCCOCC(=O)NCCOCCOCC(=O)NCCCCCCCCCCCCCCC(=O)O)NC(=O)[C@H](CO)NC(=O)[C@H](C(C)(C)O)NC(=O)[C@H](CC2CCCCC2)NC(=O)[C@H](CCN)NC1=O` [Compound 3840] ({CH2CO}-Y(Carboxymethyl)Y(Carboxymethyl)D[Phe(3-CF3)][Phe(4-COOH)][Bip][Phe(4-COOH)]H[dL][Dab][Cha][Val(3-OH)]SC[Dab][AEEA][AEEA]-{NH(CH2)14COOH}; thioether N-14), the IC50 worked out at 340 nM.

Consider `CCCC[C@@H]1NC(=O)CSC[C@@H](C(=O)N[C@@H](CCN)C(=O)NCCOCCOCC(=O)NCCCCCCCCCCCCC(=O)O)NC(=O)[C@H](CO)NC(=O)[C@H](C(C)(C)O)NC(=O)[C@H](CC2CCCCC2)NC(=O)[C@H](CCN)NC(=O)[C@@H](CC(C)C)NC(=O)[C@H](CCCN)NC(=O)[C@H](Cc2ccc(C(=O)O)cc2)NC(=O)[C@H](Cc2ccc(-c3ccccc3)cc2)NC(=O)[C@H](Cc2ccc(C(=O)O)cc2)NC(=O)[C@H](Cc2cccc(C)c2)NC(=O)[C@H](CC(=O)O)NC(=O)[C@H](Cc2ccc(OCC(=O)O)cc2)NC1=O` [Compound 3841] ({CH2CO}-[Nle]Y(Carboxymethyl)D[Phe(3-Me)][Phe(4-COOH)][Bip][Phe(4-COOH)][Orn][dL][Dab][Cha][Val(3-OH)]SC[Dab][AEEA]-{NH(CH2)12COOH}; thioether N-14), for which the IC50 was determined as 34.1 nM.

The term IC50 denotes the concentration that gives 50% inhibition.
